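Exposure lasted 48 hours, with cells grown in 96-well plates and compounds tested at five concentrations. TGI denotes the concentration required for complete inhibition of growth.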
Experiments:
Assay in all cases: inhibition of tumour cell growth, NCI panel, 48 h
[1] = tested on: OVCAR-8 ovarian
[2] = tested on: NCI-H460 lung
[3] = tested on: RPMI-8226 leukemia
[4] = tested on: MCF7 breast
[5] = tested on: HOP-92 NSCLC
[6] = tested on: HL-60(TB) leukemia
[7] = tested on: EKVX NSCLC
[8] = tested on: KM12 colon
[9] = tested on: UACC-257 melanoma
[10] = tested on: OVCAR-5 ovarian
[11] = tested on: COLO 205 colon
[12] = tested on: SF-268 CNS
[13] = tested on: SN12C renal
[14] = tested on: SW-620 colon
[15] = tested on: A549 NSCLC
[16] = tested on: MALME-3M melanoma
[17] = tested on: SK-MEL-2 melanoma
[18] = tested on: OVCAR-3 ovarian
[19] = tested on: A498 renal
[20] = tested on: LOX IMVI melanoma

SMILES: CC1(C)N=C(N)N=C(N)N1c1ccc(CCc2ccccc2)cc1
- TGI [1]: > 100 µM
- TGI [2]: > 100 µM
- TGI [3]: > 100 µM
- TGI [4]: > 76.7 µM
- TGI [5]: 79.7 µM
- TGI [6]: 49.1 µM
- TGI [7]: 91.5 µM
- TGI [8]: > 43.1 µM
- TGI [9]: 32 µM
- TGI [10]: > 88.2 µM
- TGI [11]: 24.1 µM
- TGI [12]: > 65 µM
- TGI [13]: > 78.1 µM
- TGI [14]: > 100 µM
- TGI [15]: > 100 µM
- TGI [16]: > 80.2 µM
- TGI [17]: > 100 µM
- TGI [18]: > 80.6 µM
- TGI [19]: > 100 µM
- TGI [20]: > 100 µM

SMILES: O=c1cnn(C/C=C/CO)c(=O)[nH]1
- TGI [1]: > 100 µM
- TGI [2]: > 100 µM
- TGI [3]: > 100 µM
- TGI [4]: > 100 µM
- TGI [5]: > 100 µM
- TGI [6]: > 100 µM
- TGI [7]: > 100 µM
- TGI [8]: > 100 µM
- TGI [9]: > 100 µM
- TGI [10]: > 100 µM
- TGI [11]: > 100 µM
- TGI [12]: > 100 µM
- TGI [13]: > 100 µM
- TGI [14]: > 100 µM
- TGI [15]: > 100 µM
- TGI [16]: > 100 µM
- TGI [17]: > 100 µM
- TGI [18]: > 100 µM
- TGI [19]: > 100 µM
- TGI [20]: 86 µM
